Source: US8362033B1, “Compounds and methods to dysregulate CA2+ homeostasis for cancer treatment” (University of South Florida, priority 2008, dated 2013)
Read-outs that look alike come from different tables or passages of the source.

Key:
U937 cells [1] = assay: MTT cytotoxicity / growth rate assay; assay type: cell-based
Protocol: Cytotoxicity analysis was determined by using the 3-(4,5-dimethylthiazol-2-yl)-2,5-diphenyltetrazolium bromide (MTT) dye reduction assay as previously described (Damiano J S, et al. Cell adhesion mediated drug resistance (CAM-DR): role of integrins and resistance to apoptosis in human myeloma cell lines. Blood. 1999 Mar. 1; 93(5):1658-67). For all cytotoxicity studies cells were exposed to both calcium modulating agents and tipifarnib simultaneously for 72 hours. After 72 hours at 37° C., 50 μl of MTT (Sigma Chemical) was added to each well and cells were incubated for an additional four hours. Plates were spun for 5 minutes at 1200 rpm in a Sorvall RT6000D table top centrifuge (Asheville, N.C.), supernatants were removed, and water-insoluble product was dissolved in 100 μl of 100% DMSO. Plates were shaken for 30 seconds and absorbance read at 540 nm on a Wallac Victor-2 1420 Multilabel Counter (PerkinElmer, Torrance, Calif.). All experiments were done in triplicate.
The effects of the Ca^2+ channel inhibition, using La^3+ and Gd^3+, were tested on survival of U937 cells.

8226/R5 cells = assay: Fura-2 intracellular Ca2+ fluorometry in tipifarnib-resistant 8226/R5 cells; assay type: cell-based, human; conditions: 5 μM tipifarnib with 100 μM 2-APB
Protocol: (§1) Fura-2 loading was carried out incubating the plated cells for 1 hour at room temperature in physiological saline solution (PSS) consisting of (in mM): 140 NaCl, 3 KCl, 2.5 CaCl2, 1.2 MgCl2, 7.7 glucose and 10 HEPES (pH to 7.2 with NaOH), which also contained 1 μM of the membrane permeable ester form of fura-2, acetoxymethylester (fura-2 AM) fura-2 acetoxymethylester (fura-2 AM, +0.1% DMSO) and 0.1% dimethyl sulfoxide (DMSO). The coverslips were then washed in PSS (fura-2-AM free) prior to the experiments being carried out.
(§2) A DG-4 high-speed wavelength switcher (Sutter Instruments Co., Novato, Calif.) was used to apply alternating excitation light, and fluorescent emission was captured using a Sensicam digital CCD camera (Cooke Corporation, Auburn Hills, Mich.) and recorded with Slidebook 3.0 software (Intelligent Imaging Innovations, Denver, Colo.).

Orai2 = Orai2 (Homo sapiens, UniProt Q96SN7); conditions: cited from earlier work
TRPM7 = molecular target: T1, TRPM7 (Homo sapiens, UniProt Q96QT4); conditions: cited from earlier work; for Inhibition of TRPM7 channels at 10 μM / Concentration required to inhibit TRPM7: HEK-293 cells
T1 construct: host or cells: HEK-293 (heterologous expression, in the cited studies)

8226 cells = assay: Fura-2 intracellular Ca2+ fluorometry in 8226 cells; assay type: cell-based, human
Protocol: as §1, §2

Orai 1 channels = Orai 1 channels (Homo sapiens, UniProt Q96D31); conditions: endogenously and exogenously expressed; cited from earlier work
TRPM2 = conditions: cited from earlier work
Orai3 channels = Orai3 channels (Homo sapiens, UniProt Q9BRQ5); conditions: up to 200 μM; cited from earlier work
U937 cells [2] = assay: Cell death by ER stressors in suspension or fibronectin-adhered U937 cells; assay type: cell-based; conditions: for Cell death in suspension and fibronectin adhered tumor cells: FIGS. 2(a)-(c); for Difference in viability between suspension and fibronectin-adherent cells: concentration range tested
Protocol: FIGS. 2(a)-(c) are graphs showing agents which evoke ER stress overcome cell adhesion mediated drug resistance in U937 cells. Percent of specific cell death induced in U937 cells in suspension (Suspension) or following adhesion to plates coated in fibronectin (Fibronectin) as a result of incubation in (A) tunicamycin, (B) thapsigargin, or (C) brefeldin A at the indicated concentrations.

U937 cells [3] = assay: Fura-2 intracellular Ca2+ fluorometry in adhered U937 cells; conditions: 5 μM tipifarnib, 10 μM FTI-277, 10 μM FTI-2153
Protocol: as §1, §2
(§3) Therefore, the effects of tipifarnib on intracellular Ca^2+ concentrations in tumor cells were studied in adhered U937 leukemic cells using fura-2 mediated Ca^2+ fluorometry.

U937 cells [4] = conditions: 5 μM tipifarnib, adhered U937 cells, p<0.001
Protocol: as §1, §2, §3

T1 sequence (Q96QT4 whole entry, species assumed): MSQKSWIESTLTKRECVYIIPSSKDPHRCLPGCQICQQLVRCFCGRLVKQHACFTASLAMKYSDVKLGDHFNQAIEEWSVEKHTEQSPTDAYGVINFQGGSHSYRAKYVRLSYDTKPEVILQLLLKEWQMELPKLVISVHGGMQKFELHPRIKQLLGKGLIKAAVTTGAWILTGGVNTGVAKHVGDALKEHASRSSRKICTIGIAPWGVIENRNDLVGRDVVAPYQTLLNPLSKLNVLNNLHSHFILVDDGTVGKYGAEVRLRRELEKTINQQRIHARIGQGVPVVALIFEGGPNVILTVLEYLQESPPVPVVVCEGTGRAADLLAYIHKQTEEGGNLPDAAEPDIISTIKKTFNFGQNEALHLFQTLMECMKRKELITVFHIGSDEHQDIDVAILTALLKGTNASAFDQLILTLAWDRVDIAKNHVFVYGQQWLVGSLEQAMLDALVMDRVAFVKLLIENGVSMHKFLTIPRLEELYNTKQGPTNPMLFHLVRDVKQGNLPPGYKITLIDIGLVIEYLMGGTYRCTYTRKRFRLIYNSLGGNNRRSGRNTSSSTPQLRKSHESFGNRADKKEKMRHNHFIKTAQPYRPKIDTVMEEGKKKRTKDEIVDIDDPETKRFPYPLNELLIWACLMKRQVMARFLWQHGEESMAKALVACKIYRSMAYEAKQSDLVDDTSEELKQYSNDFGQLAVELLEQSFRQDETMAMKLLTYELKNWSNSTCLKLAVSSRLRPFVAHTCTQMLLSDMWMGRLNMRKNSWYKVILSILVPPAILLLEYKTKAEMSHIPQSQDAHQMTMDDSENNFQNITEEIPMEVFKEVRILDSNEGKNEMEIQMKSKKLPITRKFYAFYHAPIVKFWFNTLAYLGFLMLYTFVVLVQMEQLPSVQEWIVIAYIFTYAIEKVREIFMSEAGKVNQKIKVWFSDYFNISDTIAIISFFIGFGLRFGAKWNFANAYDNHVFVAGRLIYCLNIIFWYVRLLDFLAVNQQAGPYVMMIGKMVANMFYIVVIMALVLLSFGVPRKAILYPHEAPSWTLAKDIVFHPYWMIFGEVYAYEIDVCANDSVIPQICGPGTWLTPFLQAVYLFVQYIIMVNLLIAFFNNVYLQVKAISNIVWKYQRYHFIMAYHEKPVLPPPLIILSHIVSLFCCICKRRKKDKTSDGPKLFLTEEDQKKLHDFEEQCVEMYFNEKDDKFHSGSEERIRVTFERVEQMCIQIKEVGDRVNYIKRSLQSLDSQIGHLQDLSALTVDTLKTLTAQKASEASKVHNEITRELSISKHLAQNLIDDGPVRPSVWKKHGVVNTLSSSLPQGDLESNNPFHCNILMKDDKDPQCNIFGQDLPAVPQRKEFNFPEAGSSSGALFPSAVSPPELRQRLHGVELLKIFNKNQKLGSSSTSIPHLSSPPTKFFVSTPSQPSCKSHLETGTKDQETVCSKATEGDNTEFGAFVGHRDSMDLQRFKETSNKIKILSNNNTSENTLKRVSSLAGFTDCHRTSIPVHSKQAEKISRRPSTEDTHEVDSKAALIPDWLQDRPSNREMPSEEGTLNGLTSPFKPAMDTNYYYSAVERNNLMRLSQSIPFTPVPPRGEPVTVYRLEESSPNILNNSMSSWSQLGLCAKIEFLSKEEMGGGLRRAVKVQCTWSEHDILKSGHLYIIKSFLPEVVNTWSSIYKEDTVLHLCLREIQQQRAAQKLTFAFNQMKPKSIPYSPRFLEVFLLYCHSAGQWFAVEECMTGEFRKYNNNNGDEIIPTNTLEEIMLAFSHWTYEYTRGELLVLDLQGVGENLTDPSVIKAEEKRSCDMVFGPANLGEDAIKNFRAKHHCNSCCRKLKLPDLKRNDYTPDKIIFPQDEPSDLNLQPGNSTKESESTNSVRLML
Sequence of Orai 1 channels (Q96D31 whole entry): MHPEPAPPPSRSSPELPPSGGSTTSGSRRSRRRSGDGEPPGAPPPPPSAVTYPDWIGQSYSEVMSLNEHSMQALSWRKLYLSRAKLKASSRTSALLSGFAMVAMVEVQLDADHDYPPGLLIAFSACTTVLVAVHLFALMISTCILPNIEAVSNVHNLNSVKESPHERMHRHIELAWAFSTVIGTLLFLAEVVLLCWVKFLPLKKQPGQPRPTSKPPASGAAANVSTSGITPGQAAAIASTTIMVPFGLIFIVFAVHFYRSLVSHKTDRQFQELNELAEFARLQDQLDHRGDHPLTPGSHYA
Sequence of Orai2 (Q96SN7 whole entry, species assumed): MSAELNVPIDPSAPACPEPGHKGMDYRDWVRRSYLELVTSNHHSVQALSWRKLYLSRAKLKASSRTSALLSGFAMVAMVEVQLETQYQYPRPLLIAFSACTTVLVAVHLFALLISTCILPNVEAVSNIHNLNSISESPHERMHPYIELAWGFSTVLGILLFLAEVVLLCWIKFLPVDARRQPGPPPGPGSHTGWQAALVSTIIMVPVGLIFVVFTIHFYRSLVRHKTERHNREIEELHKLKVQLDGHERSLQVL

## NCCOB(c1ccccc1)c1ccccc1 [2-APB, 2-aminoethoxydiphenyl borate]
U937 cells [1]
  Effect of modulator on tipifarnib-induced growth inhibition / cell survival: enhanced cell death
8226/R5 cells
  Amplification of tipifarnib-evoked increase in [Ca2+]i by 2-APB: ~250%
Orai2
  Modulation of Orai2 by 2-APB: transient potentiation at concentrations of 2-APB≦20 μM and also blocked by higher concentrations
TRPM7; 100 μM 2-APB
  Block of TRPM7-evoked currents: ~25%
8226 cells; 8226 cells, 5 μM tipifarnib with 100 μM 2-APB
  Amplification of tipifarnib-evoked increase in [Ca2+]i by 2-APB: ~400%
Orai 1 channels
  Modulation of Orai1 channels by 2-APB: potentiated at concentrations of 2-APB below 5 μM but inhibited by higher concentrations
TRPM2; HEK-293 cells, 150 μM 2-APB
  Block of TRPM2 channels at 150 μM (second study): not blocked
TRPM2; heterologously expressed in HEK-293 cells, read-out: IC50 for block of TRPM2 channels
  IC50: 1000 nM
Orai3 channels
  Modulation of Orai3 channels by 2-APB: potentiated by 2-APB even at 50 μM and do not seem to be blocked by concentrations as high as 200 μM

## C[C@H]1CCC/C=C/[C@@H]2C[C@H](O)C[C@H]2[C@H](O)/C=C/C(=O)O1 [Brefeldin A]
U937 cells [2]
  Cell death in suspension and fibronectin adhered tumor cells: dose dependent increase in cell death
  Difference in viability between suspension and fibronectin-adherent cells: no significant difference

## COC(=O)[C@H](CCSC)NC(=O)c1ccc(NC[C@@H](N)CS)cc1-c1ccccc1 [FTI-277]
U937 cells [3]
  Elevation of [Ca2+]i: failed to stimulate elevations in [Ca^2+]i

## [Gd+3] [Gd^3+]
TRPM7
  Inhibition of TRPM7 channels at 10 μM: failed to inhibit TRPM7 channels
  Concentration required to inhibit TRPM7: 1 mM

## [Cl][La]([Cl])[Cl] [La^3+, lanthanum chloride]
U937 cells [1]; U937 cells, MTT, 72 hours, 200 nM La3+, Gd3+ 100, ruthenium red 100 nM, 2-APB 5 μM and 100 μM
  Effect of modulator on tipifarnib-induced growth inhibition / cell survival: statistically significant increase in survival of U937 cells
TRPM7
  Inhibition of TRPM7 channels at 10 μM: failed to inhibit TRPM7 channels
  Concentration required to inhibit TRPM7: 1 mM
TRPM2; La3+ ≦100 μM
  Inhibition of TRPM2 channels: not inhibited

## C/C=C(/C)C(=O)O[C@H]1C(C)=C2[C@H]([C@@H]1OC(=O)CCCCCCC)[C@@](C)(OC(C)=O)C[C@H](OC(=O)CCC)[C@@]1(O)[C@H]2OC(=O)[C@@]1(C)O [thapsigargin]
U937 cells [2]
  Cell death in suspension and fibronectin adhered tumor cells: dose dependent increase in cell death
  Difference in viability between suspension and fibronectin-adherent cells: no significant difference

## Cn1cncc1[C@@](N)(c1ccc(Cl)cc1)c1ccc2c(c1)c(-c1cccc(Cl)c1)cc(=O)n2C [tipifarnib, Tipifarnib]
U937 cells [4]
  Increase in [Ca2+]i relative to vehicle alone (DMSO): more than 5 fold
8226 cells; 5 µM
  Amplitude of the [Ca2+]i response: 215 ± 17 nM
8226 cells; 5 μM tipifarnib
  Change in [Ca2+]i in 8226 cells, greater than in 8226/R5 cells: > 250%

## tunicamycin
U937 cells [2]
  Cell death in suspension and fibronectin adhered tumor cells: dose dependent increase in cell death
  Difference in viability between suspension and fibronectin-adherent cells: no significant difference
